Assay results reported in ChEMBL document CHEMBL3407340, “Synthesis, radiolabeling and evaluation of novel 4-oxo-quinoline derivatives as PET tracers for imaging cannabinoid type 2 receptor” (Eur J Med Chem, 2015).

Experiments:
Bone [1] = experiment: Biodistribution in Wistar rat bone at 5 to 10 MBq, iv after 15 mins by gamma counting analysis in presence of GW405883; format: ADME, organism-based, Bone element; details: in vivo, 0.25 h
Brain [2] = experiment: Drug uptake in LPS-treated mouse whole brain at 10 to 18 MBq, iv by PET imaging analysis in presence of […]; format: ADME, organism-based; details: in vivo
Hippocampus [3] = experiment: Drug uptake in LPS-treated mouse hippocampus at 10 to 18 MBq, iv by PET imaging analysis in presence of […]; format: ADME, organism-based; details: in vivo
[4] = Biodistribution in Wistar rat urine at 5 to 10 MBq, iv after 15 mins by gamma counting analysis; format: ADME, organism-based; details: in vivo, 0.25 h
Rattus norvegicus [5] = experiment: Biodistribution in Wistar rat thyroid gland at 5 to 10 MBq, iv after 15 mins by gamma counting analysis; format: ADME, organism-based; details: in vivo, 0.25 h
[6] = Drug uptake in human cervical spinal cord at 0.4 nM after 15 mins by autoradiography; format: ADME, tissue-based; details: 0.25 h, 0.0004 µM
Brain [7] = experiment: Drug uptake in LPS-treated mouse whole brain at 10 to 18 MBq, iv by PET imaging analysis; format: ADME, organism-based; details: in vivo
Small intestine [8] = experiment: Biodistribution in Wistar rat small intestine at 5 to 10 MBq, iv after 15 mins by gamma counting analysis; format: ADME, organism-based; details: in vivo, 0.25 h
Muscle tissue [9] = experiment: Biodistribution in Wistar rat muscle at 5 to 10 MBq, iv after 15 mins by gamma counting analysis in presence of GW405883; format: ADME, organism-based; details: in vivo, 0.25 h
Spleen [10] = experiment: Biodistribution in Wistar rat spleen at 5 to 10 MBq, iv after 15 mins by gamma counting analysis; format: ADME, organism-based; details: in vivo, 0.25 h
Rattus norvegicus [11] = experiment: Biodistribution in Wistar rat testis at 5 to 10 MBq, iv after 15 mins by gamma counting analysis in presence of GW405883; format: ADME, organism-based; details: in vivo, 0.25 h
Cerebellum [12] = experiment: Drug uptake in LPS-treated mouse cerebellum at 10 to 18 MBq, iv by PET imaging analysis in presence of GW405883; format: ADME, organism-based; details: in vivo
[13] = Partition coefficient, log D of the compound in n-octanol/phosphate buffer at pH 7.4 after 15 mins by shake flask method; format: physicochemical
Kidney [14] = experiment: Biodistribution in Wistar rat kidneys at 5 to 10 MBq, iv after 15 mins by gamma counting analysis; format: ADME, organism-based; details: in vivo, 0.25 h
Adrenal gland [15] = experiment: Biodistribution in Wistar rat adrenal gland at 5 to 10 MBq, iv after 15 mins by gamma counting analysis in presence of GW405883; format: ADME, organism-based; details: in vivo, 0.25 h
Rattus norvegicus [16] = experiment: Biodistribution in Wistar rat testis at 5 to 10 MBq, iv after 15 mins by gamma counting analysis; format: ADME, organism-based; details: in vivo, 0.25 h
Cortex [17] = experiment: Drug uptake in LPS-treated mouse cortex at 10 to 18 MBq, iv by PET imaging analysis; format: ADME, organism-based; details: in vivo
Brain [18] = experiment: Biodistribution in Wistar rat brain at 5 to 10 MBq, iv after 15 mins by gamma counting analysis; format: ADME, organism-based; details: in vivo, 0.25 h
Blood [19] = experiment: Biodistribution in Wistar rat blood at 5 to 10 MBq, iv after 15 mins by gamma counting analysis; format: ADME, organism-based; details: in vivo, 0.25 h
Spleen [20] = experiment: Biodistribution in Wistar rat spleen at 5 to 10 MBq, iv after 15 mins by gamma counting analysis in presence of GW405883; format: ADME, organism-based; details: in vivo, 0.25 h
Plasma [21] = experiment: Stability in mouse plasma after 40 mins; format: ADME, cell-free
Bone [22] = experiment: Biodistribution in Wistar rat bone at 5 to 10 MBq, iv after 15 mins by gamma counting analysis; format: ADME, organism-based, Bone element; details: in vivo, 0.25 h
[23] = Drug uptake in human lumbar spinal cord at 0.4 nM after 15 mins by autoradiography; format: ADME, tissue-based; details: 0.25 h, 0.0004 µM
Kidney [24] = experiment: Biodistribution in Wistar rat kidneys at 5 to 10 MBq, iv after 15 mins by gamma counting analysis in presence of GW405883; format: ADME, organism-based; details: in vivo, 0.25 h
Rattus norvegicus [25] = experiment: Biodistribution in Wistar rat thyroid gland at 5 to 10 MBq, iv after 15 mins by gamma counting analysis in presence of GW405883; format: ADME, organism-based; details: in vivo, 0.25 h
Brain [26] = experiment: Drug uptake in LPS-treated mouse brain at 0.2 nM, iv after 5 days by PET imaging analysis relative to vehicle-treated control; format: ADME, organism-based; details: in vivo, 120 h, 0.0002 µM
Heart [27] = experiment: Biodistribution in Wistar rat heart at 5 to 10 MBq, iv after 15 mins by gamma counting analysis; format: ADME, organism-based; details: in vivo, 0.25 h
Rattus norvegicus [28] = experiment: Biodistribution in Wistar rat fat at 5 to 10 MBq, iv after 15 mins by gamma counting analysis; format: ADME, organism-based, Adipose tissue; details: in vivo, 0.25 h
Cerebellum [29] = experiment: Drug uptake in LPS-treated mouse cerebellum at 10 to 18 MBq, iv by PET imaging analysis; format: ADME, organism-based; details: in vivo
Zone of skin [30] = experiment: Biodistribution in Wistar rat skin at 5 to 10 MBq, iv after 15 mins by gamma counting analysis; format: ADME, organism-based; details: in vivo, 0.25 h
Pancreas [31] = experiment: Biodistribution in Wistar rat pancreas at 5 to 10 MBq, iv after 15 mins by gamma counting analysis; format: ADME, organism-based; details: in vivo, 0.25 h
[32] = Drug metabolism in Wistar rat plasma assessed as parent compound remaining at 115 to 163 MBq, iv after 5 mins; format: ADME, organism-based; details: read-out: Stability
Muscle tissue [33] = experiment: Biodistribution in Wistar rat muscle at 5 to 10 MBq, iv after 15 mins by gamma counting analysis; format: ADME, organism-based; details: in vivo, 0.25 h
Plasma [34] = experiment: Stability in human plasma after 40 mins; format: ADME, cell-free
Cortex [35] = experiment: Drug uptake in LPS-treated mouse cortex at 10 to 18 MBq, iv by PET imaging analysis in presence of […]; format: ADME, organism-based; details: in vivo
[36] = Biodistribution in Wistar rat urine at 5 to 10 MBq, iv after 15 mins by gamma counting analysis in presence of GW405883; format: ADME, organism-based; details: in vivo, 0.25 h
Brain [37] = experiment: Biodistribution in Wistar rat brain at 5 to 10 MBq, iv after 15 mins by gamma counting analysis in presence of GW405883; format: ADME, organism-based; details: in vivo, 0.25 h
Hippocampus [38] = experiment: Drug uptake in LPS-treated mouse hippocampus at 10 to 18 MBq, iv by PET imaging analysis; format: ADME, organism-based; details: in vivo
Liver [39] = experiment: Biodistribution in Wistar rat liver at 5 to 10 MBq, iv after 15 mins by gamma counting analysis; format: ADME, organism-based; details: in vivo, 0.25 h
Heart [40] = experiment: Biodistribution in Wistar rat heart at 5 to 10 MBq, iv after 15 mins by gamma counting analysis in presence of GW405883; format: ADME, organism-based; details: in vivo, 0.25 h
[41] = Drug metabolism in Wistar rat spleen assessed as parent compound remaining at 115 to 163 MBq, iv after 20 mins; format: ADME, organism-based; details: read-out: Stability
Zone of skin [42] = experiment: Biodistribution in Wistar rat skin at 5 to 10 MBq, iv after 15 mins by gamma counting analysis in presence of GW405883; format: ADME, organism-based; details: in vivo, 0.25 h
Spleen [43] = experiment: Biodistribution in Wistar rat spleen at 5 to 10 MBq, iv after 15 mins by gamma counting analysis in presence of GW405883 relative to control; format: ADME, organism-based; details: in vivo, 0.25 h
Lung [44] = experiment: Biodistribution in Wistar rat lung at 5 to 10 MBq, iv after 15 mins by gamma counting analysis in presence of GW405883; format: ADME, organism-based; details: in vivo, 0.25 h
Plasma [45] = experiment: Stability in rat plasma after 40 mins; format: ADME, cell-free
Lung [46] = experiment: Biodistribution in Wistar rat lung at 5 to 10 MBq, iv after 15 mins by gamma counting analysis; format: ADME, organism-based; details: in vivo, 0.25 h
Adrenal gland [47] = experiment: Biodistribution in Wistar rat adrenal gland at 5 to 10 MBq, iv after 15 mins by gamma counting analysis; format: ADME, organism-based; details: in vivo, 0.25 h
[48] = Drug metabolism in Wistar rat plasma assessed as parent compound remaining at 115 to 163 MBq, iv after 20 mins; format: ADME, organism-based; details: read-out: Stability
Rattus norvegicus [49] = experiment: Biodistribution in Wistar rat fat at 5 to 10 MBq, iv after 15 mins by gamma counting analysis in presence of GW405883; format: ADME, organism-based, Adipose tissue; details: in vivo, 0.25 h
Brain [50] = experiment: Drug uptake in LPS-treated mouse brain at 0.2 nM, iv after 5 days by PET imaging analysis in presence of GW405883 relative to control; format: ADME, organism-based; details: in vivo, 120 h, 0.0002 µM
Blood [51] = experiment: Biodistribution in Wistar rat blood at 5 to 10 MBq, iv after 15 mins by gamma counting analysis in presence of GW405883; format: ADME, organism-based; details: in vivo, 0.25 h
Small intestine [52] = experiment: Biodistribution in Wistar rat small intestine at 5 to 10 MBq, iv after 15 mins by gamma counting analysis in presence of GW405883; format: ADME, organism-based; details: in vivo, 0.25 h
[53] = Drug metabolism in Wistar rat plasma assessed as parent compound remaining at 115 to 163 MBq, iv after 10 mins; format: ADME, organism-based; details: read-out: Stability
Liver [54] = experiment: Biodistribution in Wistar rat liver at 5 to 10 MBq, iv after 15 mins by gamma counting analysis in presence of GW405883; format: ADME, organism-based; details: in vivo, 0.25 h
Pancreas [55] = experiment: Biodistribution in Wistar rat pancreas at 5 to 10 MBq, iv after 15 mins by gamma counting analysis in presence of GW405883; format: ADME, organism-based; details: in vivo, 0.25 h
Cannabinoid receptor 1 = Cannabinoid receptor 1 (Homo sapiens, UniProt P21554); experiment: Displacement of [3H]-CP-55940 from human CB1 receptor transfected in CHOK1 cells after 90 mins by liquid scintillation counting analysis; format: cell-based, CHO-K1
Cannabinoid receptor 1, sequence (P21554 whole entry): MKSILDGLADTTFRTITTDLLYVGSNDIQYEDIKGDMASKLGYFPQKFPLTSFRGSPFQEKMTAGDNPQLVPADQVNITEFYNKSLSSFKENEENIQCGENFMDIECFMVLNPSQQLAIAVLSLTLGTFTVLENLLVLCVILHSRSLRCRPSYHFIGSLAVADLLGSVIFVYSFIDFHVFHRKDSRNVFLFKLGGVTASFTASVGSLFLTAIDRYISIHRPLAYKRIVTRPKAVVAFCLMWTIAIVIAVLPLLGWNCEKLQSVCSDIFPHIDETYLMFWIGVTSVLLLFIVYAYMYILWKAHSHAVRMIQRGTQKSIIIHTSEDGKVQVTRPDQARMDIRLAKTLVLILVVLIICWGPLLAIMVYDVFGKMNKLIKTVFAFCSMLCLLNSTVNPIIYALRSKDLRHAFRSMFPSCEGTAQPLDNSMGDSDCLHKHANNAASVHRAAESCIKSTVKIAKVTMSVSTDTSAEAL

CCOCCn1cc(C(=O)NC23CC4CC(CC(C4)C2)C3)c(=O)c2cccc(O[11CH3])c21
Drug uptake (Bone [1]): 0.039 % ID/g | Drug uptake (Brain [2]): Not Active | Drug uptake (Hippocampus [3]): Not Active | Drug uptake [4]: 0.06 % ID/g | Drug uptake (Rattus norvegicus [5]): 0.077 % ID/g | Drug uptake [6]: Active | Drug uptake (Brain [7]): Active | Drug uptake (Small intestine [8]): 0.924 % ID/g | Drug uptake (Muscle tissue [9]): 0.071 % ID/g | Drug uptake (Spleen [10]): 0.284 % ID/g | Drug uptake (Rattus norvegicus [11]): 0.034 % ID/g | Drug uptake (Cerebellum [12]): Not Active | logD at 0.25 h [13]: 2.78 | Drug uptake (Kidney [14]): 0.122 % ID/g | Drug uptake (Adrenal gland [15]): 0.262 % ID/g | Drug uptake (Rattus norvegicus [16]): 0.033 % ID/g | Drug uptake (Cortex [17]): Active | Drug uptake (Brain [18]): 0.025 % ID/g | Drug uptake (Blood [19]): 0.044 % ID/g | Drug uptake (Spleen [20]): 0.062 % ID/g | Stability (Plasma [21]): Stable | Drug uptake (Bone [22]): 0.046 % ID/g | Drug uptake [23]: Active | Drug uptake (Kidney [24]): 0.134 % ID/g | Drug uptake (Rattus norvegicus [25]): 0.064 % ID/g | Drug uptake (Brain [26]): Active | Drug uptake (Heart [27]): 0.08 % ID/g | Drug uptake (Rattus norvegicus [28]): 0.05 % ID/g | Drug uptake (Cerebellum [29]): Active | Drug uptake (Zone of skin [30]): 0.05 % ID/g | Drug uptake (Pancreas [31]): 0.11 % ID/g | remaining at 5 min [32]: 72% | Drug uptake (Muscle tissue [33]): 0.065 % ID/g | Stability (Plasma [34]): Stable | Drug uptake (Cortex [35]): Not Active | Drug uptake [36]: 0.08 % ID/g | Drug uptake (Brain [37]): 0.028 % ID/g | Drug uptake (Hippocampus [38]): Active | Drug uptake (Liver [39]): 0.505 % ID/g | Drug uptake (Heart [40]): 0.091 % ID/g | remaining at 20 min [41]: 81% | Drug uptake (Zone of skin [42]): 0.057 % ID/g | Drug uptake (Spleen [43]): 78% | Drug uptake (Lung [44]): 0.075 % ID/g | Stability (Plasma [45]): Stable | Drug uptake (Lung [46]): 0.088 % ID/g | Drug uptake (Adrenal gland [47]): 0.216 % ID/g | remaining at 20 min [48]: 47% | Drug uptake (Rattus norvegicus [49]): 0.053 % ID/g | Drug uptake (Brain [50]): Not Active | Drug uptake (Blood [51]): 0.03 % ID/g | Drug uptake (Small intestine [52]): 0.425 % ID/g | remaining at 10 min [53]: 55% | Drug uptake (Liver [54]): 0.38 % ID/g | Drug uptake (Pancreas [55]): 0.113 % ID/g

CCCCn1cc(C(=O)NC2CCCC2)c(=O)c2cccc(OC)c21
Ki (Cannabinoid receptor 1): > 10 µM

CCCCCn1cc(C(=O)NC23CC4CC(CC(C4)C2)C3)c(=O)c2cccc(OC)c21
Ki (Cannabinoid receptor 1): > 10 µM

CCOCCn1cc(C(=O)NC23CC4CC(CC(O)(C4)C2)C3)c(=O)c2cccc(OC)c21
Ki (Cannabinoid receptor 1): > 10 µM

CCCCn1cc(C(=O)NCC2CC2)c(=O)c2cccc(OC)c21
Ki (Cannabinoid receptor 1): > 10 µM
